Source: patent publication US12227771B2, “Expression systems and methods of use thereof” (Janssen Pharmaceutica NV, priority 2019, dated 2025)
Where “and” joins values, the source holds several entries; their conditions need not be identical. Equal values may be shown once. Read-outs that look alike come from different tables or passages of the source.

Experiments:
[1] = target: T1, α9α10 nAChR (Homo sapiens, UniProt Q9GZZ6+Q9UGM1); experiment: cell-based; format: cell-based; conditions: for rank order of potency of antagonists: dose response curves
T1 construct: expressed in transfected cells; host or cells: HEK293T
Source text: After three washes, the plates were placed in the FLIPR stage. […] Maximal FLIPR responses to ACh were plotted (FIGS. 3A-C).
Target sequence in this assay (Q9GZZ6 25-450): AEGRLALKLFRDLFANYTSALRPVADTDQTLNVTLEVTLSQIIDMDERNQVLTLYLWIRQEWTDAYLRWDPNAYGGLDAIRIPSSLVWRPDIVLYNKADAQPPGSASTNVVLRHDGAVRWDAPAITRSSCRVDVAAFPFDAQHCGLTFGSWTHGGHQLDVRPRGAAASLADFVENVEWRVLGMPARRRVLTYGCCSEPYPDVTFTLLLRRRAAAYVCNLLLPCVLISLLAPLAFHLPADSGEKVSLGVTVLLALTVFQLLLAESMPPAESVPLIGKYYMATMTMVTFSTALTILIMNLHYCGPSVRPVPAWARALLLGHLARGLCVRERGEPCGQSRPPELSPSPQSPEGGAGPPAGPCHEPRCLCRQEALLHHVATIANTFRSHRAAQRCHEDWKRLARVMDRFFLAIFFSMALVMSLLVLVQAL
Target sequence in this assay (Q9UGM1 23-479): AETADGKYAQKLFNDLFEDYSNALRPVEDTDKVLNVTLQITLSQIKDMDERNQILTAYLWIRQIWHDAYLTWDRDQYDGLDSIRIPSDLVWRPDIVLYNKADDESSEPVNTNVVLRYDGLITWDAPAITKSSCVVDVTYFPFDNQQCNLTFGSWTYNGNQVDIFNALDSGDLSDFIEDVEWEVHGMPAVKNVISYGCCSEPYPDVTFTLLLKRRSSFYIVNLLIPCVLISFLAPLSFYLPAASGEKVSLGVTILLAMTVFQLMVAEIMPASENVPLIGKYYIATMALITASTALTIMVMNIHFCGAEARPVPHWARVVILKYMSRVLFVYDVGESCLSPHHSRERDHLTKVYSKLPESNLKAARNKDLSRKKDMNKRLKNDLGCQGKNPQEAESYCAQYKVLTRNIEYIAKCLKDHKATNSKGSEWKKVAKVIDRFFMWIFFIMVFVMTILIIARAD

[2] = target: T1, α9α10 nAChR; experiment: FLIPR calcium assay of HEK293T cells co-transfected with α9α10 nAChR and cDNA clones, response evoked by 200 μM ACh; format: cell-based; conditions: 200 μM ACh; for FLIPR Response (Fold/Baseline): 180 s
Procedure: Human embryonic kidney 293T (HEK293T) cells were cultured in high glucose DMEM medium supplemented with 10% FBS, sodium pyruvate and penicillin/streptomycin. Prior to transfection, cells were seeded at ˜80-90% confluence in 384-well fluorescence imaging plate reader (FLIPR) assay plates. After a 4 hour (hr) incubation, wells of cells were individually co-transfected with human α9α10 nAChR plus one of 20,000 clones from cDNA libraries encoding most all human proteins (Origene Technologies; Rockville, Md.; Broad Institute; Cambridge, Mass.) using Fugene HD (Promega; Madison, Wis.) according to the manufacture's protocol. After two days incubation, cells were washed three times with assay buffer (137 mM NaCl, 4 mM KCl, 2 mM CaCl2, 1 mM MgCl2, 5 mM glucose, 10 mM HEPES pH7.4) and loaded with Calcium5 dye (Molecular Devices; San Jose, Calif.) and 1.25 mM probenecid for 1 hr at room temperature (RT). After three washes, the plates were placed in the FLIPR stage.
To further characterize the regulation of α9α10 nAChR expression, HEK293T cells were co-transfected with α9α10 nAChR and each of CHAT, TMIE, TMEM100, TMEM132A, TMEM132C, TMEM132D, TMEM132E and TNFRSF10A individually and in combination (Table 2).
Target sequence in this assay (Q9UGM1 23-479): as above
Target sequence in this assay (Q9GZZ6 25-450): as the sequence (Q9GZZ6 25-450) above

Q: For `CN1[C@@H]2CC[C@H]1C[C@@H](OC(=O)C(CO)c1ccccc1)C2` (stereo partly drawn) [Atropine, atropine], which IC50 ([1]; HEK293T, α9α10 nAChR + CHAT + TMIE, 200 μM ACh, read-out: Antagonist IC50) is on record?
A: The IC50 was 340 µM.

Q: What about the IC50 ([1]; HEK293T, α9α10 nAChR + CHAT, 200 μM ACh, read-out: Antagonist IC50) of the same compound?
A: The IC50 was 12.3 µM.

Q: And the IC50 ([1]; HEK293T, α9α10 nAChR + TMIE, 200 μM ACh, read-out: Antagonist IC50)?
A: Its IC50 is 15.7 µM.

Q: And the “rank order of potency of antagonists” value ([1]; 200 μM ACh)?
A: Its value is “MLA>strychnine>atropine>nicotine”.

Q: What does the source list for `CN1CCCC1c1cccnc1` (stereo not drawn) [Nicotine, nicotine]?
A: IC50 ([1]; Antagonist IC50): 384 µM and 544 µM and 1500 µM; rank order of potency of antagonists ([1]; 200 μM ACh): MLA>strychnine>atropine>nicotine

Q: Which results are given for “TNFRSF10A: Tumor necrosis factor receptor superfamily member 10A, SEQ ID NO: 10, co-transfected cDNA clone”?
A: FLIPR Response (Fold/Baseline) ([2]; HEK293T co-transfected with α9α10 nAChR + CHAT plus the named gene): 2.0 Fold/Baseline; FLIPR Response (Fold/Baseline) ([2]; HEK293T co-transfected with α9α10 nAChR plus the named gene): 0.4 Fold/Baseline; functional expression of co-transfected α9α10 nAChR in cDNA library screen ([2]; HEK293T, 20,000 cDNA clones): enabled functional expression

Q: With `O=C1C[C@@H]2OCC=C3CN4CC[C@]56c7ccccc7N1[C@H]5[C@H]2[C@H]3C[C@H]46` [Strychnine, strychnine] as the compound, how does the IC50 ([1]; Antagonist IC50, HEK293T, α9α10 nAChR + CHAT + TMIE, 200 μM ACh) read?
A: The IC50 was 1.8 µM.

Q: What about the IC50 ([1]; Antagonist IC50, HEK293T, α9α10 nAChR + CHAT, 200 μM ACh) of the same compound?
A: Its IC50 is 1.3 µM.

Q: What about the IC50 ([1]; Antagonist IC50, HEK293T, α9α10 nAChR + TMIE, 200 μM ACh) of the same compound?
A: Its IC50 is 0.76 µM.
